Experimental data taken from ChEMBL document CHEMBL5537204, “Identifying Marine-Derived Tanzawaic Acid Derivatives as Novel Inhibitors against Osteoclastogenesis and Osteoporosis via Downregulation of NF-κB and NFATc1 Activation” (J Med Chem, 2024).
The source made the active and inactive calls. The rule behind the calls is not given here.

Assays:
RAW264.7 [1] = assay: Inhibition of LPS-induced NF-kappaB activation in mouse RAW264.7 cells expressing luciferase gene preincubated with compound for 30 mins followed by LPS-induction and measured after 6 hrs by luciferase reporter gene assay; format: cell-based; conditions: dose 20.0 µM, time 6.5 hrs
RAW264.7 [2] = assay: Inhibition of LPS-induced NF-kappaB activation in mouse RAW264.7 cells expressing luciferase gene at 20 uM preincubated with compound for 30 mins followed by LPS-induction and measured after 6 hrs by luciferase reporter gene assay; format: cell-based; conditions: time 6.5 hrs
BMMC = assay: Anti-osteoporosis activity in C57BL/6 mouse BMMC cells assessed as reduction in RANKL-induced osteoclasts formation at 10 uM incubated for 4 days in presence of MCSF by TRAP staining based assay; format: functional; conditions: time 4.0 day
[3] = Toxicity in C57BL/6 mouse assessed as abnormal behavior at 60 mg/kg, IG administered every 3 days for 46 days; format: organism-based; conditions: in vivo, po, 1104 h, time 46 day
Mus musculus [4] = assay: Anti-osteoporosis activity in OVX-induced osteoporosis C57BL/6 mouse model assessed as increase in connectivity density in femur at 60 mg/kg, IG administered every 3 days for 8 weeks; format: functional, organism-based
[5] = Toxicity in C57BL/6 mouse assessed as animal death at 60 mg/kg, IG administered every 3 days for 46 days; format: organism-based; conditions: in vivo, po, 1104 h, time 46 day
Mus musculus [6] = assay: Anti-osteoporosis activity in OVX-induced osteoporosis C57BL/6 mouse model assessed as increase in BV/TV in femur at 60 mg/kg, IG administered every 3 days for 8 weeks; format: functional, organism-based
Mus musculus [7] = assay: Anti-osteoporosis activity in OVX-induced osteoporosis C57BL/6 mouse model assessed as prevention of bone loss in femur at 60 mg/kg, IG administered every 3 days for 8 weeks; format: functional, organism-based

| SMILES | inhibition (RAW264.7 [1]) | inhibition (RAW264.7 [2]) | also measured |
| --- | --- | --- | --- |
| C[C@@H]1C[C@@](C)(O)C[C@@H]2C=C[C@@](C)(/C=C/C=C/C(=O)O)C(=O)[C@@H]12 | Dose-Dependent Effect |  |  |
| C[C@@H]1[C@@H](O)[C@H](O)[C@@H]2C[C@H](CO)C[C@H](C)[C@H]2[C@]1(O)/C=C/C=C/C(=O)O | Dose-Dependent Effect |  |  |
| Cc1ccc2c(c1/C=C/C=C/C(=O)O)[C@H](C)C[C@H](C)[C@@H]2O |  | Active |  |
| C[C@@H]1C[C@](O)(CO)C[C@@H]2C=C[C@H](C)[C@H](/C=C/C=C/C(=O)O)[C@@H]12 | Dose-Dependent Effect |  |  |
| C[C@@H]1Cc2ccc(CO)c(/C=C/C=C/C(=O)O)c2[C@H](C)C1 |  | Active |  |
| CC(=O)OC[C@H]1C[C@@H](C)[C@H]2[C@@H](C=C[C@H](C)[C@]2(O)/C=C/C=C/C(=O)O)C1 | Dose-Dependent Effect |  |  |
| Cc1ccc2c(c1/C=C/C=C/C(=O)O)[C@H](C)C[C@H](CO)C2 |  | Active |  |
| C[C@@H]1C[C@@](C)(O)C[C@@H]2C=C[C@H](C)[C@](O)(/C=C/C=C/C(=O)O)[C@@H]12 | Dose-Dependent Effect |  | Activity (BMMC): Active |
| Cc1ccc2c(c1/C=C/C=C/C(=O)O)[C@H](C)C[C@@](C)(O)[C@H]2O | Dose-Dependent Effect | Active | Activity (BMMC): Active |
| Cc1ccc2c(c1/C=C/C=C/C(=O)O)[C@H](C)C[C@H](C)[C@H]2O |  | Active |  |
| Cc1ccc2c(c1/C=C/C=C/C(=O)O)[C@H](C)C[C@@](C)(O)C2 | Dose-Dependent Effect | Active |  |
| CC1=CC(=O)[C@H]2C[C@@H](C)C[C@@H](C)[C@@H]2[C@]1(O)/C=C/C=C/C(=O)O | Dose-Dependent Effect |  |  |
| C[C@]12CC[C@@H]3c4ccc(O)cc4CC[C@H]3[C@@H]1CC[C@@H]2O [ESTRADIOL] |  |  | Activity [3]: Non-Toxic; Activity (Mus musculus [4]): Active; Activity [5]: Non-Toxic; Activity (Mus musculus [6]): Active; Activity (Mus musculus [7]): Active |
| C[C@@H]1[C@@H](Cl)[C@H](O)[C@@H]2C[C@@](C)(O)C[C@H](C)[C@H]2[C@]1(O)/C=C/C=C/C(=O)O | Dose-Dependent Effect |  |  |
